Results from article PMC6435698, “Keggin-type polyoxotungstates as mushroom tyrosinase inhibitors - A speciation study” (Scientific Reports, 2019).
Where two headings read alike, the source gives them in different places.

Experiments:
[1] = target: T1, abPPO4 (mushroom tyrosinase) (Agaricus bisporus, UniProt C7FF05); test: dopachrome assay, inhibition of abPPO4 diphenolase activity; type: biochemical; conditions: for Inhibition type: substrate L-DOPA; for α, inhibition parameter, from Lineweaver-Burk intercepts: [b] from Lineweaver-Burk intercepts; for inhibitory effect on abPPO4 activity (in words): activity plots; as to Ki [mM], from Dixon plots: L-DOPA 0.4–1.5 mM; as to Ki [mM], from Lineweaver-Burk slopes: L-DOPA 0.4–1.5 mM
T1 construct: glutathione-S-transferase (GST) (N, cleaved yes); made in house; host or cells: E. coli BL21(DE3)
T1 sequence (C7FF05 1-379 limits assumed): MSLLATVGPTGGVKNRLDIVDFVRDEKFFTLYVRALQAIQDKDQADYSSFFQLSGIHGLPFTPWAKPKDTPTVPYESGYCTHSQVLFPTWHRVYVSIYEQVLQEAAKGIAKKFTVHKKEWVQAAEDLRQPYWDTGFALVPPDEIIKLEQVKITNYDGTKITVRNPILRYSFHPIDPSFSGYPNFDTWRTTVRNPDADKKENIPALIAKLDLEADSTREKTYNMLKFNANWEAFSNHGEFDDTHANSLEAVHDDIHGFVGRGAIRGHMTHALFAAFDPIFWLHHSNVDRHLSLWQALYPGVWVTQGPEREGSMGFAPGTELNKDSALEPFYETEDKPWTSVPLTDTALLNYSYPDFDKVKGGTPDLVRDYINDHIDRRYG
Experimental: The detailed methodology applied for kinetic evaluation is presented in the SI.
For the activity plots shown here, the ratios of reaction rates v ([I] = 0] and vapp ([I] = 0.2–14 mM) were determined from UV absorption measurements at 475 nm using the dopachrome assay. Each reaction setup contained a fixed amount of enzyme (1 µg abPPO4) in 1 mL in a plastic cuvette and the reaction buffer was 50 mM Na-citrate pH 6.8. POT stock solutions were prepared in 20 mM concentration in reaction buffer and adjusted for pH 6.8 with NaOH, if necessary. The reaction rates were extracted from the obtained absorption curves as the slope of linear fits of the steepest curve sections close to the start of the reaction over a time-range of 30 s and were determined in triplicates. The relative enzymatic activity dependent on the inhibitor concentration was fitted to a suitable hyperbolic expression (see SI for details). […] The dopachrome assay was performed exactly as described in section 3.1.1. This time, the observed reaction velocities vapp (in µmol/min) were calculated from the extracted reaction rates (in 1/s) using the extinction coefficient of dopachrome ε = 3700 M^−1 cm^−1 [62]. The so obtained data was plotted according to Lineweaver-Burk, and the slopes and ordinate intercepts of these graphs were used to extract inhibition parameters.
(The kinetic models with according mathematical expressions applied in this study are based on Copeland’s guide for enzyme kinetics[28].)
The classical Michaelis-Menten equation[28] relates the velocity v of an enzymatic reaction to the applied substrate concentration [S]:
In this equation, the Michaelis constant KM represents the substrate concentration effecting the half-maximum reaction rate vmax.
For the reported inhibition studies, we chose an expanded version of this equation (1) which accounts for all possible inhibition mechanisms and combinations thereof[28]. In general, both […]
ݒ௠௔௫,௔௣௣ = ௩೘ೌೣଵା [಺] (2)
Herein, [I] refers to the inhibitor concentration, Ki is the inhibition constant measuring the […]
The three ideal inhibition types are reflected by three limiting conditions for α:
(A) 0 < α <<1: uncompetitive inhibition
(B) α = 1: non-competitive inhibition
(C) α >> 1: competitive inhibition
Therefore, values of α < 1 often correspond to mixed-type inhibition with contributions from uncompetitive and non-competitive inhibition modes.
Insertion of expressions (2) and (3) in equation (1) leads to the final mixed-type inhibition […]
The relative enzymatic activity upon inhibition can be expressed as the ratio of the observed reaction velocity v app to the non - inhibited reaction performance v through dividing equation […]
This corresponds to a normalization of the reaction rates with respect to the non - inhibited rate. As w e were interested in the dependence of the reaction velocity on the inhibitor concentration , the substrate concentration was fixed to 1 mM L - DOPA for all activity plots.
This led to a further simplification of equation ( 1 ) : […]
Equation (6) was used as the final curve fit expression for kinetic evaluation of those POM […]
K M was set to 26.1 mM as reported for ab PPO4 by
3.2 Determination of inhibition type
3.2. 1 Kinetic evaluation using Lineweaver - Burk plots […]
linear Lineweaver - Burk [ 29 ] extrapolations. The double - reciprocal plots of 1/ v app against 1/[S] yielded straight li nes that were fitted accordingly to the corresponding ly rearranged form of […]
For simplicity, the terms for the slope m and the ordinate shift t are co mbine d in constants in […]

[2] = speciation / hydrolytic stability of POTs at pH 6.8 by 183W NMR; type: physicochemical; conditions: 183W NMR (and 31P, 27Al NMR), ca. 20 mM in 50 mM Na-citrate pH 6.8
Excerpt: ^183W NMR spectroscopy is the most widely applied and reliable technique for the structural characterization of POTs in solution as well as to monitor the progress of reaction. Hundreds of POM ^183W NMR spectra have been reported since the first ^183W NMR spectrum for [SiW11]^8− observed by Acerete et al. in[47]. The here-presented ^183W NMR analysis yielded a single signal for all intact [XW12]^n− structures (Figs 4A,D and S11–S14), reflecting the perfect tetrahedral symmetry of the Keggin α-isomer and clearly confirming the isomeric purity of the prepared POTs.
^183W NMR samples for all the POM compounds were prepared in high concentrations similar to the stock solutions used for kinetic experiments (usually about 20 mM) in 50 mM Na-citrate pH 6.8 if not stated otherwise. ^183W NMR spectra were recorded with a Bruker FT-NMR spectrometer Avance Neo 500 MHz in 10 mm tubes for a total experiment time of ca. 60 hours, using standard pulse programs at 20.836 MHz and a 63° flip angle with 1 s of relaxation delay; the temperature was kept at 25 °C. Chemical shifts were measured relative to external 1 M Na2WO4. For [PW12]^3−, [PW11]^7− and […], additional ^31P NMR spectra were taken, structures of [AlW12]^5−, [AlW11]^9− and [BeW12]^6− were confirmed by ^27Al NMR or ^9Be NMR spectroscopy, respectively. ^27Al, ^9Be and ^31P NMR spectra were recorded at 130.368, 70.273 and 202.53 MHz, respectively. Chemical shifts are given relative to Al(NO3)3, BeSO4 or 85% H3PO4.
In the ^183W NMR spectrum of [PW12]^3− at pH 6.8 (see Fig. 4E), the six most intense peaks can be assigned to six different symmetry-equivalent positions in [PW11]^7−[47],[49]. The less intense signals in the ^183W NMR spectrum can be attributed to other [PW12]^3− hydrolysis products[51] that have been identified in the ^31P NMR spectrum (Fig. S7B). […] Based on both spectra, it can be concluded that [PW11]^7− prevails in aqueous solution at pH 6.8. […] Assignment is complicated by the special pseudo-paramagnetic character of this cluster (see ^183W NMR analysis in Fig. S15, SI section 2.2.2.4).
In order to identify the tungstate species responsible for the inhibitory effect observed with the orthotungstate solution [WO4]^2−, ^183W NMR was performed in reaction buffer pH 6.8, which had to be readjusted by a few drops of 5 M HCl to compensate for the marked basicity of [WO4]^2−. […] The chemical shifts are in agreement with literature data[56]. […] The ^183W NMR spectra for the POT clusters with higher negative charges (see Figs S11–S14) show only one single signal, thereby confirming full structural integrity of the corresponding Keggin anions at pH 6.8. The lacunary cluster [AlW11]^9− evoked a rise in pH up to 8.5 upon dissolution in reaction buffer (pH 6.8) to reach a final concentration of 20 mM. […] In the [BeW12]^6− spectrum (Fig. S14), three additional signals at −147.6, −155.3 and −168.6 ppm can be seen, which were assigned to the β-Keggin isomer. The C3v symmetry of this isomer results in three shifts with intensity ratio 1:2:1, as previously observed for other β-isomers of Keggin structure. The β-isomer is commonly formed during any synthesis of Keggin clusters, but rearranged to the α-form during prolonged thermal reaction. Thus, the occurrence of the β-form in the present preparation can be ascribed to the reduced reaction time applied for the hydrothermal synthesis. […] The ^31P (cf. Fig. S8) and ^183W NMR (Fig. S15) spectra of [PW11Ni]^5− have a special character originating from the peculiar electronic configuration of Ni^2+ and were in general accordance with reference data[61]. In the presented ^183W NMR spectrum, signals from those W atoms in direct neighbourhood to the Ni^2+ center cannot be observed, which complicates unambiguous assignment to the desired substituted POT structure. However, the obtained results can be explained in the light of electronic effects. […]

[3] = expected from net charge; cited from earlier work
[4] = system: Bacillus megaterium tyrosinase; design: method as in PMID 27725765; conditions: substrate L-DOPA; cited from earlier work
mushroom tyrosinase = conditions: substrate L-DOPA; cited from earlier work
[5] = [a] from activity plot, 1 mM L-DOPA, 50 mM Na-citrate pH 6.8, 0–14 mM POT
[6] = [a] from activity plot, 1 mM L-DOPA, 50 mM Na-citrate pH 6.8, 0–14 mM POT, read-out: Ki [mM], from activity plot
[7] = [a] from activity plot, 1 mM L-DOPA, pH 6.8
[8] = [b] from Lineweaver-Burk slopes, L-DOPA 0.4–[…], pH 6.8, read-out: Ki [mM], from Lineweaver-Burk slopes
[9] = [c] from Dixon plots, average intersection, L-DOPA 0.4–[…], pH 6.8, read-out: Ki [mM], from Dixon plots

Compound | Ki [mM], from activity plot [1, 5] | Inhibition type ([1]; pH 6.8) | structural integrity / hydrolysis at pH 6.8 [2] | Ki [1, 6] [mM] | α, inhibition parameter, from activity plot [1, 7] | α, inhibition parameter, from Lineweaver-Burk intercepts ([1]; pH 6.8) | inhibitory effect on abPPO4 activity (in words) ([1]; 1 mM L-DOPA, pH 6.8) | further results
Na5[AlW12O40] [[AlW12]^5−] | No inhibition | No inhibition | retain full structural integrity |  |  |  |  | 
K4[SiW12O40] [[SiW12]^4−] |  | Mixed-type | partial hydrolysis | 4.7 | 0.11 | 0.32 | most potent inhibitory effect | Ki [1, 8]: 3.8 mM; Ki [1, 9]: 5.6 mM
O=[N+]([O-])[O-].O=[N+]([O-])[O-].[Ni+2] [Ni^2+, Ni(NO3)2, reference compound] | No inhibition | No inhibition |  |  |  |  | no inhibition effect | 
[AlW11O39{Al(H2O)}]^6− |  |  |  | 54.1 |  |  | weak inhibition effects | 
Na6[BeW12O40] [[BeW12]^6−] | No inhibition | No inhibition | retain full structural integrity |  |  |  |  | stability in aqueous buffers up to pH [3]: ≤ 9 pH
K7[PW11O39] [[PW11]^7−] |  | Mixed-type |  | 12 | 0.12 | 0.17 | inhibitory effect of intermediate capacity | Ki [1, 8]: 9.9 mM; Ki [1, 9]: 9.9 mM
Na6[H2W12O40] [[H2W12]^6−] | No inhibition | No inhibition | retain full structural integrity |  |  |  |  | 
K5[BW12O40] [[BW12]^5−] | No inhibition | No inhibition | retain full structural integrity |  |  |  |  | 
Na3[PW12O40] [[PW12]^3−] |  | Mixed-type | full hydrolysis |  | 0.13 | 0.20 | markedly lower inhibition capacity | 
K8[SiW11O39] [[SiW11]^8−] | No inhibition | No inhibition |  |  |  |  | no enzymatic inhibition | inhibitory effect on abPPO4 activity (in words) ([1]; 1 mM L-DOPA, pH 6.8, listed as Hx[SiW11O39]^(8−x)−): ineffective
O=c1cc(CO)occ1O [kojic acid] |  |  |  |  |  |  |  | inhibition mode [4]: mixed-type; inhibition mode (mushroom tyrosinase): competitive
K5[PW11O39{Ni(H2O)}] [[PW11Ni]^5−] |  | Mixed-type |  | 9.7 | 0.12 | 0.20 | pronounced inhibition | Ki [1, 8]: 14.3 mM; Ki [1, 9]: 15 mM
[Na+].[Na+].[O]=[W](=[O])([O-])[O-] [[WO4]^2−, Na2WO4, reference compound] |  | Mixed-type | no detectable residual free orthotungstate | 20 | 0.14 | 0.03 |  | Ki [1, 8]: 19 mM; Ki [1, 9]: 24.8 mM
Na9[AlW11O39] [[AlW11]^9−] |  | Mixed-type | not stable |  | 0.12 | 0.31 | weak inhibitory capacity | 
H[W7O24]^5− [heptatungstate] |  |  |  |  |  |  | measurable inhibition effects | 
